EP0332387B1, “Triazole derivatives, their preparation and their use as fungicides” (Sankyo Company Limited, priority 1988, dated 1989)

What was measured:
Type in all cases: in vivo
[1] = system: Venturia inaequalis; test: Preventive activity against apple scab (Experiment 9); conditions: apple seedlings sprayed at 300 ppm, inoculated after 24 hours, 3 days moist chamber then 10 days greenhouse; diseased area on third and fourth leaves
Protocol: Apple seedlings at the 3 - 4 leaf stage were sprayed with an aqueous suspension of the test compound at a concentration of 300 ppm (30 ml/3 pots). The seedlings were then kept for 24 hours at room temperature, after which they were inoculated with the fungus, Venturia inaequalis, by spraying a spore suspension of the fungus over the seedlings. After inoculation, the seedlings were kept in a moist chamber for 3 days at 20 - 22 °C and then moved to a greenhouse at 20 - 22°C for 10 days. The disease controlling index was given on the basis of the diseased area on the third and fourth leaves.

[2] = system: Rhizoctonia solani; test: Preventive activity against sheath blight of rice plants (Experiment 2); parameters: key: 0 = disease as untreated, 5 = no disease (complete control); conditions: rice seedlings (variety Nihonbare), sprayed at 100 ppm (30 ml/3 pots) 24 hours before inoculation, 5 days; height of the lesions
Protocol: Rice seedlings (variety Nihonbare) at the 4 - 5 leaf stage were sprayed with an aqueous suspension of the test compound at a concentration of 100 ppm (30 ml/3 pots). The seedlings were then kept for 24 hours at room temperature, after which they were inoculated with the fungus, Rhizoctonia solani, by placing 4 - 5 oat grains on which the fungus had previously been cultured around the base of each seedling. The seedlings were then kept in a moist chamber for 5 days at 25 - 27 °C. The disease controlling index was given on the basis of the height of the lesions formed on the rice seedlings.
Except in Table 12G, the compounds tested have the formula (1-1), in which Ar represents the group shown at the beginning of each part of the Table and R^1, R^2, X and Y are as defined in the Table.
(§1) The disease controlling index shown in the foregoing Tables 11 to 19 is indicated by the following codes: • 5--no disease (complete control) • 4--disease rate is less than 10% of the untreated plant • 3--disease rate is 10% - 30% of the untreated plant • 2--disease rate is 30% - 50% of the untreated plant • 1--disease rate is 50% - 70% of the untreated plant • 0--disease rate is almost same as the untreated plant.

[3] = system: Erysiphe graminis f.sp. hordei; test: Curative activity against powdery mildew of barley (Experiment 7); conditions: barley seedlings (variety Sekishinriki), sprayed one day after inoculation at 3 ppm (30 ml/3 pots), further 10 days; diseased area on the first leaf
Protocol: Barley seedlings (variety […]) at the first leaf stage were inoculated with conidia of Erysiphe graminis f.sp. hordei and kept in a greenhouse at 15 - 20°C. After one day, the seedlings were sprayed with an aqueous suspension of the test compound at a concentration of 3 ppm (30 ml/3 pots), and they continued to be kept in the greenhouse at that temperature for a further 10 days. The disease controlling index was given on the basis of the diseased area on the first leaf.

[4] = system: Candida albicans; test: ED50 in mice infected with Candida albicans, oral treatment (Experiment 11); conditions: treated orally
Protocol: Groups of mice (each group contained 10 mice) were inoculated with 7 to 9 x 10^6 spores per mouse of Candida albicans. 1, 4, and 24 hours after the inoculation, each mouse was orally administered 20 mg/kg of the test compound each time. The anti-fungal activity was assessed by the survival rate 9 days after infection. The survival rate was recorded as 0% 2 days after infection in an untreated (control) group. […] Following essentially the same procedure as that described in Experiment 10, mice were infected with Candida albicans, and treated orally with various compounds of the invention, as shown in the following Table 21. Fifteen days after infection (or fourteen days in the case of the compounds of Example Nos. 5 and 10), ED50 values were determined and are reported in the following Table 21.

[5] = system: Rhizoctonia solani; test: Preventive activity against sheath blight of rice plants by submerged application (Experiment 4); conditions: rice seedlings (variety Nihonbare), applied to the water in the pots, 100 g per 10 ares, inoculated after 7 days, 5 days; height of the lesions
Text: Rice seedlings (variety Nihonbare) at the 4 - 5 leaf stage grown in pots were flooded to a depth of 1 cm with water. The test compound was then applied to the water in the pots in an amount corresponding to 100 g per 10 ares. After keeping the seedlings in a greenhouse for 7 days, the water was drained from the pots and the seedlings were inoculated with the fungus, Rhizoctonia solani, by placing 4 - 5 oat grains on which the fungus had previously been cultured around the base of each seedling. The seedlings were then kept in a moist chamber for 5 days at 25 - 27 °C. The disease controlling index was given on the basis of the height of the lesions formed on the rice seedlings.
Except for Table 14F, the compounds tested have the formula (1-1), in which Ar represents the group shown at the beginning of each part of the Table and R^1, R^2, X and Y are as defined in the Table.
as §1

[6] = system: Puccinia recondita; test: Curative activity against leaf rust of wheat (Experiment 6); conditions: wheat seedlings (variety Norin No 61), sprayed after inoculation at 3 ppm (30 ml/3 pots), 10 days; diseased area on the first leaf
Protocol: Wheat seedlings (variety Norin No 61) at the first leaf stage were inoculated with the fungus, Puccinia recondita, by spraying them with a spore suspension of the fungus. They were then kept in a moist chamber for 24 hours at 20 - 22 °C, after which they were moved to a greenhouse at 15 - 20 °C. […] The seedlings were then continuously kept in the greenhouse for 10 days. The disease controlling index was given on the basis of diseased area on the first leaf.

[7] = system: Sphaerotheca fuliginea; test: Preventive activity against powdery mildew of cucumber (Experiment 8); conditions: cucumber seedlings sprayed at 300 ppm, inoculated after 24 hours, evaluated after 7 days in greenhouse; diseased area on third and fourth leaves
Protocol: Cucumber seedlings (variety Sagamihanpaku) at the 3 - 4 leaf stage were sprayed with an aqueous suspension of the test compound at a concentration of 300 ppm (30 ml/3 pots). The seedlings were then kept for 24 hours at room temperature, after which they were inoculated with conidida of Sphaerotheca fuliginea. After keeping the seedlings in a greenhouse for 7 days, the disease controlling index was evaluated on the basis of the diseased area on the third and fourth leaves.

[8] = system: Gibberella Fujikuroi; test: Activity against bakanae disease of rice plants by seed soaking (Experiment 5); parameters: key: 0 = disease as untreated, 5 = no disease (complete control); conditions: infected rice seeds (variety Tanginbozu) immersed 3 days in aqueous suspension (concentration not given), 3 weeks; number of diseased seedlings
Protocol: Ten grams of rice seeds (variety Tanginbozu), infected with Gibberella Fujikuroi, were immersed in 20 ml of an aqueous suspension of the test compound for 3 days. At the end of this time, the treated seeds were densely sown in soil in pots, and the pots were placed in a greenhouse at 20 - 30 °C for 3 weeks. The disease controlling index was given on the basis of the number of diseased seedlings.
(§2) The compounds tested have the formula (1-1), in which Ar represents the group shown at the beginning of each part of the Table and R^1, R^2, X and Y are as defined in the Table.
as §1

[9] = system: Pyricularia oryzae; conditions: rice seedlings (variety Sachikaze), sprayed 24 hours after inoculation at 10 ppm (30 ml/3 pots), further 6 days; number of lesions on the upper two leaves
[10] = system: Rhizoctonia solani; test: Curative activity against sheath blight of rice plants (Experiment 3); parameters: key: 0 = disease as untreated, 5 = no disease (complete control); conditions: rice seedlings (variety Nihonbare), sprayed 24 hours after inoculation at 10 ppm (30 ml/3 pots), further 5 days; height of the lesions
Protocol: Rice seedlings (variety Nihonbare) at the 4 - 5 leaf stage were inoculated with the fungus, Rhizoctonia solani, by placing 4 - 5 oat grains on which the fungus had previously been cultured around the base of each rice seedling and keeping them in a moist chamber at 25 - 27 °C. After 24 hours, the rice seedlings were sprayed with an aqueous suspension of the test compound at a concentration of 10 ppm (30 ml/3 pots) and they then continued to be kept in the moist chamber for a further 5 days. The disease controlling index was given on the basis of the height of the lesions formed on the rice seedlings.
as §2, §1

[11] = 336 h, fourteen days after infection (Example Nos. 5 and 10)
[12] = 360 h, fifteen days after infection

Compound: C[C@@H](NC(=O)c1ccc(Cl)cc1)[C@](O)(Cn1cncn1)c1ccc(Cl)cc1Cl (relative stereo) [Example 5, (2R*, 3R*)-3-(4-Chlorobenzoylamino)-2-(2,4-dichlorophenyl)-1-(1H-1,2,4-triazol-1-yl)-2-butanol]
- Index (disease controlling index) [1]: 5
- disease controlling index [2]: 5
- disease controlling index [3]: 5
- ED50 [4, 11]: 7.07 mg/kg
- disease controlling index [5]: 4 (disease rate is less than 10% of the untreated plant)
- disease controlling index [6]: 5
- Index (disease controlling index) [7]: 5

Compound: C[C@@H](NC(=O)c1ccc(Cl)cc1)[C@](O)(Cn1cncn1)c1ccc(Cl)cc1Cl [Example 10, (2R, 3R)-3-(4-Chlorobenzoylamino)-2-(2,4-dichlorophenyl)-1-(1H-1,2,4-triazol-1-yl)-2-butanol]
- Index (disease controlling index) [1]: 5
- disease controlling index [2]: 5
- disease controlling index [8]: 5
- disease controlling index [9]: 4 (disease rate is less than 10% of the untreated plant)
- ED50 [4, 11]: < 2.5 mg/kg
- disease controlling index [10]: 5
- Index (disease controlling index) [7]: 5

Compound: C[C@@H](SC(=O)c1ccc(C(F)(F)F)cc1)[C@](O)(Cn1cncn1)c1ccc(Cl)cc1Cl (relative stereo) [Example 46, (2R*, 3R*)-2-(2,4-Dichlorophenyl)-1-(1H-1 ,2,4-triazol-1-yl)-3-[4-(trifluoromethyl)benzoylthio]-2-butanol]
- Index (disease controlling index) [1]: 5
- ED50 [4, 12]: 0.73 mg/kg
- Index (disease controlling index) [7]: 5

Compound: C[C@@H](N(C)C(=O)c1ccc(C(F)(F)F)cc1)[C@](O)(Cn1cncn1)c1ccc(F)cc1F (relative stereo) [Example 59, (2R^*, 3R*)-2-(2,4-Difluorophenyl)-3-{N-methyl-N-[4-(trifluoromethyl)benzoyl]amino}-1-(1H-1,2,4-triazol-1-yl)-2-butanol]
- Index (disease controlling index) [1]: 5
- disease controlling index [2]: 5
- disease controlling index [8]: 4 (disease rate is less than 10% of the untreated plant)
- ED50 [4, 12]: 0.66 mg/kg
- disease controlling index [5]: 4 (disease rate is less than 10% of the untreated plant)
- disease controlling index [10]: 5
- Index (disease controlling index) [7]: 5
